System: moderate-to-severe chronic spontaneous urticaria (CSU)
Test: Phase 2 CSU study: urticaria activity score over 7 days (UAS7)
Format: in vivo, human
Design: key to UAS7 Median / UAS7 Change from baseline Median / UAS7 change from baseline, Q1 / UAS7 change from baseline, Q3 / UAS7 change from baseline, Max / UAS7 Change from baseline LS Mean (SE): UAS7 points; daily UAS score ranges 0–6 points/day, over 7 days
Settings: for UAS7 change from baseline at Week 12, LS Mean (SE): ANCOVA; for LS mean change in UAS7 from baseline to Week 12 (see Table 18): sentence on reductions following one week of treatment; for UAS7 Change from baseline Mean (SD) / UAS7 Change from baseline Median / UAS7 Percent change from baseline Mean (SD) / UAS7 Percent change from baseline Median / UAS7 change from baseline, Max / UAS7 change from baseline, Min / UAS7 change from baseline, Q1 / UAS7 change from baseline, Q3 / UAS7 percent change from baseline, Max / UAS7 percent change from baseline, Min / UAS7 percent change from baseline, Q1 / UAS7 percent change from baseline, Q3: double-blind period, last week block of Table 17 (week heading not shown); for participants with UAS7 of 0 / participants with UAS7 of ≤6: Week 12, omalizumab-naïve; for UAS7 Mean (SD) / UAS7 Median: End of Study; for UAS7 % Change difference for rilzabrutinib vs. placebo LS Mean (95% CI) / UAS7 % Change from baseline LS Mean (SE) / UAS7 Change difference for rilzabrutinib vs. placebo LS Mean (95% CI) / UAS7 Change from baseline LS Mean (SE): ITT Population
Source text: The study comprises a 12 week, randomized, double-blind, placebo-controlled, multi-center, dose-ranging efficacy and safety phase, followed by a 40 week open label extension (OLE) phase (see FIG. 1). The study consists of three phases and an optional OLE phase. […] Clinically, CSU is characterized by the spontaneous and recurrent appearance of pruritic hives. The proposed primary endpoints were the UAS7 at Week 12 in EU and EU reference countries and the ISS7 in the US. Regardless of where a participant was from, all assessments were the same. The UAS7 score is a composite score containing both the HSS7 and the ISS7. This allowed a global assessment of the two key components of urticaria: hives and itch. […] The UAS is a validated PRO measure. […] The daily UAS scores range from 0 to 6 point/day. […] Patients were to complete the UAS using the e-diary. […] The following secondary endpoints were to be analyzed using the same approach as for the primary endpoint: • Change from baseline in UAS7 at Week 4 • Change from baseline in UAS7 at Week 12 (for US and US reference countries) • Change from baseline in ISS7 at Week 12 (except US and US reference countries) • Change from baseline in HSS7 at Week 12 The following responder secondary endpoints were to be analyzed using the Cochran-Mantel-Haenszel test adjusted by region: • Proportion of participants with UAS7<6 at Week 12 • Proportion of participants with UAS7=0 at Week 12 Participants who received selected prohibited medications and/or rescue medications were to be considered as non-responders for time points after the medication usage. For other participants, all available data including those collected during the off-treatment period were to be used to determine the responder/non-responder status. Missing data were to be considered as non-responders.

[1] = 400 mg BID, Omalizumab-Naïve Population (N = 35), n observed/imputed 5 (3/2)
[2] = 400 mg BID, omalizumab-naïve population
[3] = 400 mg BID, omalizumab-naïve population with outlier removed
[4] = 400 mg QPM, Omalizumab-Naïve Population (N = 37), n observed/imputed 7 (3/4)
[5] = 400 mg QPM, omalizumab-naïve population
[6] = 400 mg QPM, omalizumab-naïve population with outlier removed
[7] = 400 mg TID, Omalizumab-Naïve Population (N = 35), n observed/imputed 5 (3/2)
[8] = 400 mg TID, Patients with Prior Omalizumab Use, Including Omalizumab-Incomplete Responders (N = 6), n observed/imputed 2 (0/2)
[9] = 400 mg TID, omalizumab-naïve population
[10] = 400 mg TID, omalizumab-naïve population with outlier removed
[11] = 400 mg TID, Prior Omalizumab Use

## CC(C)(C=C(C#N)C(=O)N1CCC[C@@H](n2nc(-c3ccc(Oc4ccccc4)cc3F)c3c(N)ncnc32)C1)N1CCN(C2COC2)CC1 [rilzabrutinib, (R)-2-[3-[4-amino-3-(2-fluoro-4-phenoxy-phenyl)pyrazolo[3,4-d]pyrimidin-1-yl]piperidine-1-carbonyl]-4-methyl-4-[4-(oxetan-3-yl)piperazin-1-yl]pent-2-enenitrile]
400 mg BID
  improvement compared to placebo across all endpoints: positive improvements across all endpoints
  participants with UAS7 of 0: 14.3%
  participants with UAS7 of ≤6: 20.0%
400 mg BID, ITT population
  UAS7 at Week 12, Mean (SD): 14.70 (14.29)
  UAS7 at Week 12, Median: 12.00
  UAS7 change from baseline at Week 12, LS Mean Diff vs. placebo (95% CI): −3.62 (−8.87, 1.63)
  UAS7 change from baseline at Week 12, Mean (SD): −16.02 (13.29) ^
  UAS7 change from baseline at Week 12, Median: −13.50
  UAS7 change from baseline at Week 12, LS Mean (SE): −14.82 (1.98)
  LS mean change in UAS7 from baseline to Week 12 (see Table 18): −10.01
[1]
  UAS7 Change from baseline Mean (SD): −14.40 (13.79)
  UAS7 Change from baseline Median: −13.00
  UAS7 Percent change from baseline Mean (SD): −51.30 (48.04) %
  UAS7 Percent change from baseline Median: −48.15%
  UAS7 change from baseline, Max: 0.0
  UAS7 change from baseline, Min: −29.0
  UAS7 change from baseline, Q1: −28.00
  UAS7 change from baseline, Q3: −2.00
  UAS7 percent change from baseline, Max: 0.0%
  UAS7 percent change from baseline, Min: −100.0%
  UAS7 percent change from baseline, Q1: −100.00%
  UAS7 percent change from baseline, Q3: −8.33%
[2]
  LS mean reduction in UAS7 from baseline to Week 12 (see Table 19): −9.79
  UAS7 at Week 12, Mean (SD): 15.61 (13.91)
  UAS7 at Week 12, Median: 14.00
  UAS7 change from baseline at Week 12, LS Mean Diff vs. placebo (95% CI): −4.09 (−9.59, 1.40)
  UAS7 change from baseline at Week 12, Mean (SD): −14.49 (12.08) ^
  UAS7 change from baseline at Week 12, Median: −12.80
  UAS7 change from baseline at Week 12, LS Mean (SE): −14.24 (2.06)
[3]
  UAS7 at Week 12, Mean (SD): 15.61 (13.91)
  UAS7 at Week 12, Median: 14.00
  UAS7 change from baseline at Week 12, LS Mean Diff vs. placebo (95% CI): −4.29 (−9.74, 1.16)
  UAS7 change from baseline at Week 12, Mean (SD): −14.49 (12.08) ^
  UAS7 change from baseline at Week 12, Median: −12.80
  UAS7 change from baseline at Week 12, LS Mean (SE): −14.30 (2.06)
400 mg QPM
  difference to placebo across endpoints: no difference
400 mg QPM, ITT population
  UAS7 at Week 12, Mean (SD): 21.80 (10.94)
  UAS7 at Week 12, Median: 22.40
  UAS7 change from baseline at Week 12, LS Mean Diff vs. placebo (95% CI): 0.97 (−4.40, 6.34)
  UAS7 change from baseline at Week 12, Mean (SD): −11.04 (9.56)
  UAS7 change from baseline at Week 12, Median: −9.40
  UAS7 change from baseline at Week 12, LS Mean (SE): −10.22 (2.01)
[4]
  UAS7 Change from baseline Mean (SD): −21.44 (16.26)
  UAS7 Change from baseline Median: −28.00
  UAS7 Percent change from baseline Mean (SD): −66.12 (46.34) %
  UAS7 Percent change from baseline Median: −86.67%
  UAS7 change from baseline, Max: 0.3
  UAS7 change from baseline, Min: −38.0
  UAS7 change from baseline, Q1: −36.40
  UAS7 change from baseline, Q3: 0.00
  UAS7 percent change from baseline, Max: 1.1%
  UAS7 percent change from baseline, Min: −100.0%
  UAS7 percent change from baseline, Q1: −100.00%
  UAS7 percent change from baseline, Q3: 0.00%
[5]
  UAS7 at Week 12, Median: 22.87
  UAS7 change from baseline at Week 12, LS Mean Diff vs. placebo (95% CI): 0.40 (−5.08, 5.89)
  UAS7 change from baseline at Week 12, Mean (SD): −10.57 (9.36)
  UAS7 change from baseline at Week 12, Median: −8.70
  UAS7 change from baseline at Week 12, LS Mean (SE): −9.74 (2.00) ^
[6]
  UAS7 at Week 12, Median: 22.87
  UAS7 change from baseline at Week 12, LS Mean Diff vs. placebo (95% CI): 0.08 (−5.29, 5.46)
  UAS7 change from baseline at Week 12, Mean (SD): −10.57 (9.36)
  UAS7 change from baseline at Week 12, Median: −8.70
  UAS7 change from baseline at Week 12, LS Mean (SE): −9.93 (1.96) ^
400 mg TID arm
  patients with improvement in the weekly UAS7: all patients except for one showed improvement
400 mg TID, ITT population
  UAS7 at Week 12, Median: 9.00
  UAS7 change from baseline at Week 12, LS Mean Diff vs. placebo (95% CI): −6.76 (−12.01, −1.51)
  UAS7 change from baseline at Week 12, Mean (SD): −20.30 (12.41) ^
  UAS7 change from baseline at Week 12, Median: −20.33
  UAS7 change from baseline at Week 12, LS Mean (SE): −17.95
  LS mean change in UAS7 from baseline to Week 12 (see Table 18): −12.72
400 mg TID, ITT population, listed as Rilzabrutinib
  UAS7 change from baseline at Week 12, LS Mean (SE): −17.95 (1.95)
400 mg TID, ITT population, belongs to LS mean change −12.72
  decrease from baseline in UAS7: 40.18%
[7]
  UAS7 Change from baseline Mean (SD): −11.40 (6.62)
  UAS7 Change from baseline Median: −14.00
  UAS7 Percent change from baseline Mean (SD): −38.24 (25.31) %
  UAS7 Percent change from baseline Median: −45.95%
  UAS7 change from baseline, Max: 0.0
  UAS7 change from baseline, Min: −17.0
  UAS7 change from baseline, Q1: −14.00
  UAS7 change from baseline, Q3: −12.00
  UAS7 percent change from baseline, Max: 0.0%
  UAS7 percent change from baseline, Q1: −50.00%
  UAS7 percent change from baseline, Q3: −28.57%
[8]
  UAS7 Change from baseline Mean (SD): −3.50 (4.95)
  UAS7 Change from baseline Median: −3.50
  UAS7 Percent change from baseline Mean (SD): −21.88 (30.94) %
  UAS7 Percent change from baseline Median: −21.88%
  UAS7 change from baseline, Max: 0.0
  UAS7 change from baseline, Min: −7.0
  UAS7 change from baseline, Q1: −7.00
  UAS7 change from baseline, Q3: 0.00
  UAS7 percent change from baseline, Max: 0.0%
  UAS7 percent change from baseline, Min: −43.8%
  UAS7 percent change from baseline, Q1: −43.75%
  UAS7 percent change from baseline, Q3: 0.00%
400 mg TID
  participants with UAS7 of 0: 20.0%
  participants with UAS7 of ≤6: 34.3%
[9]
  LS mean reduction in UAS7 from baseline to Week 12 (see Table 19): −11.44
  UAS7 at Week 12, Mean (SD): 11.00 (9.90)
  UAS7 at Week 12, Median: 12.25
  UAS7 change from baseline at Week 12, LS Mean Diff vs. placebo (95% CI): −6.75 (−12.23, −1.26)
  UAS7 change from baseline at Week 12, Mean (SD): −19.04 (11.40) ^
  UAS7 change from baseline at Week 12, Median: −18.92
  UAS7 change from baseline at Week 12, LS Mean (SE): −16.89
[10]
  UAS7 at Week 12, Mean (SD): 11.00 (9.90)
  UAS7 at Week 12, Median: 12.25
  UAS7 change from baseline at Week 12, LS Mean Diff vs. placebo (95% CI): −7.50 (−13.02, −1.97)
  UAS7 change from baseline at Week 12, Mean (SD): −19.04 (11.40) ^
  UAS7 change from baseline at Week 12, Median: −18.92
  UAS7 change from baseline at Week 12, LS Mean (SE): −17.50
400 mg TID, omalizumab-naïve population with outlier removed, listed as Rilzabrutinib
  UAS7 change from baseline at Week 12, LS Mean (SE): −17.50 (2.06)
400 mg TID, omalizumab-naïve population, listed as Rilzabrutinib
  UAS7 change from baseline at Week 12, LS Mean (SE): −16.89 (2.04)
400 mg BID, Omalizumab-Naïve
  UAS7 Mean (SD): 15.60 (17.52)
  UAS7 Median: 14.00
400 mg QPM, Omalizumab-Naïve
  UAS7 Mean (SD): 11.70 (16.82)
  UAS7 Median: 5.00
400 mg TID, Omalizumab-Naïve
  UAS7 Mean (SD): 21.40 (11.74)
  UAS7 Median: 20.00
[11]
  UAS7 Mean (SD): 15.58 (9.31)
  UAS7 Median: 15.58
400 mg BID, Week 2
  UAS7 % Change difference for rilzabrutinib vs. placebo LS Mean (95% CI): −17.26%
  UAS7 % Change from baseline LS Mean (SE): −36.13%
  UAS7 Change difference for rilzabrutinib vs. placebo LS Mean (95% CI): −4.49
  UAS7 Change from baseline LS Mean (SE): −10.82
400 mg QPM, Week 3
  UAS7 % Change difference for rilzabrutinib vs. placebo LS Mean (95% CI): −7.92%
  UAS7 % Change from baseline LS Mean (SE): −29.55%
  UAS7 Change difference for rilzabrutinib vs. placebo LS Mean (95% CI): −1.91
  UAS7 Change from baseline LS Mean (SE): −9.50
400 mg QPM, Week 5
  UAS7 % Change difference for rilzabrutinib vs. placebo LS Mean (95% CI): −0.72%
  UAS7 % Change from baseline LS Mean (SE): −32.52%
  UAS7 Change difference for rilzabrutinib vs. placebo LS Mean (95% CI): −0.26

— patent US20260256792A1, “TREATMENT OF CHRONIC SPONTANEOUS URTICARIA BY ADMINISTERING (R)-2-[3-[4-AMINO-3-(2-FLUORO-4-PHENOXY-PHENYL)PYRAZOLO[3,4-D]PYRIMIDIN-1-YL]PIPERIDINE-1-CARBONYL]-4-METHYL-4-[4-(OXETAN-3-YL)PIPERAZIN-1-YL]PENT-2-ENENITRILE” (priority 2023, published 2026)
